Consider one sequence from PMC12084297, “Cytoplasmic connexin43-microtubule interactions promote glioblastoma stem-like cell maintenance and tumorigenicity” (Cell Death & Disease, 2025).

Holding throughout (assay type): cell-based, human
The test system of experiment [1] is HES1 mRNA. Description: HES1 mRNA by RT-qPCR, VTC-037 GSCs. The note with it: 50 μM, 24 h, compared to antennapedia alone or JM2-scrambled. As for the experimental part:
RNA was extracted using the PureLink^TM RNA mini extraction kit (Thermo Fisher) and on-column DNA digestion was completed using PureLink^TM DNase according to the manufacturer’s instructions. RNA was reverse transcribed to generate cDNA using the iScript^TM Reverse Transcription SuperMix for RT-qPCR kit (Bio-Rad Laboratories). Real-time PCR was performed using the SYBR select Master Mix for CFX (Thermo Fisher) in hard-shell 96-well PCR plates (Bio-Rad Laboratories) on a CFX Connect Real Time System (Bio-Rad Laboratories). Primer sequences used were: hNOTCH1_Fwd: 5’-CGCACAAGGTGTCTTCCAG-3’; hNOTCH1_Rev: 5’-CGGCGTGTGAGTTGATGA-3’; hHES1_Fwd: 5’-GGCTGGAGAGGCGGCTAA-3’; hHES1_Rev: 5’-[…]-3’; hHEY1_Fwd: 5’-[…]-3’; hHEY1_Rev: 5’-[…]-3’.
(Real-time PCR tracks product formation cycle by cycle.)

Experiment [2] concerns VTC-037 GSCs. Description: Gliosphere formation assay, VTC-037 GSCs. The following applies: VTC-037, 10, 50 or 100 μM every other day, 2 weeks. As for the experimental part:
GSCs and PDX GBM22 cells were plated as single cell suspension in low-attachment 96-well plates (GSCs: 100–500 cells per well; GBM22 cells: 500–2000 cells per well), using methods similar to those reported previously. Cells were then treated with peptides every other day. 2 weeks later, gliospheres were observed using phase contrast microscopy on a Revolve microscope (Echo Laboratories). The number of gliospheres was then determined, while the gliosphere size was assessed by diameter measurement. To evaluate stem cell frequency in GSCs, gliosphere formation assay was performed with limiting cell dilutions with cells plated at varying densities in low-attachment 96-well plates. Cells were treated with peptides every other day, and after 2 weeks, gliosphere-positive wells were observed and scored using phase contrast microscopy on a Revolve microscope. The stem cell frequency was analyzed using the online data analysis program ELDA (Extreme Limiting Dilution Analysis).

The subject of experiment [3] is Notch1. Kind of experiment: Notch1 protein expression, immunoblot, VTC-037 GSCs. The note with it: 50 μM, 24 h. On the procedure: Cells were lysed in RIPA buffer (0.1% sodium dodecyl sulphate, 50 mM Tris pH 7.4, 150 mM NaCl, 1 mM EDTA, 1% Triton X-100, 1% deoxycholic acid, 200 μM Na3VO4, and 1 mM NaF) supplemented with Halt^TM Protease and Phosphatase Inhibitor Cocktail (Thermo Fisher). Lysates were sonicated prior to centrifugation at 4 °C for 20 min at 10,000 x g. Protein concentration was quantified using the DC protein assay (Bio-Rad Laboratories) and a standard curve obtained with increasing concentrations of Bovine Serum Albumin (BSA; Fisher Scientific). Protein samples were normalized to 20 μg total protein per lane and resolved by SDS-PAGE electrophoresis. 4X Bolt LDS sample buffer supplemented with 400 mM DTT (final concentration 1X Bolt LDS with 100 mM DTT) was added to samples before heating at 70 °C for 10 min. SDS-PAGE was run using NuPAGE Bis-Tris 4%–12% gradient gels (Thermo Fisher) with MES or MOPS running buffer according to manufacturer’s instructions. Spectra™ Multicolor Protein Ladder (Thermo Fisher) or Precision Plus Protein™ Kaleidoscope™ Prestained Protein Standards (Bio-Rad Laboratories) were included as protein ladders on the same gels. […] Membranes were imaged on a ChemiDoc™ imaging system, and analyzed with Image Lab software (Bio-Rad Laboratories). […]
In general terms: Immunoblotting shows a protein as a band on a membrane.

For the sequence VFFKGVKDRVKGRSD [JM2], the “Hes1 mRNA expression” value in experiment [1] was “significantly decreased the expression of Notch downstream targets Hes1 and Hey1 at the transcription level”. Also, the GSC-dependent gliosphere formation entry in experiment [2] is “inhibits VTC-001, VTC-034, and VTC-037 GSC-dependent gliosphere formation in a dose-dependent manner”. Also, the “Gliosphere size (diameter)” value in experiment [2] (n = 4) is “significant decrease in gliosphere size”. The Gliosphere number entry in experiment [2] (n = 6) was “significant decrease in gliosphere size as assessed by diameter measurement (Fig. 6B), and number”. Further, the Notch1 protein expression result in experiment [3] was “significantly decreased Notch1 expression at the protein level”.
